Data on three compounds can be found in US8519136B2, “Aminopyridine derivatives having aurora a selective inhibitory action” (MSD K.K., priority 2008, dated 2013).

Counter-ions that a name gives are not always drawn.

Assay [1] concerns the target T1, His-tagged human Aurora A (Homo sapiens, UniProt O14965).
T1 construct: His (N); made in house; host or cells: Escherichia coli BL21-CodonPlus(DE3)-RIL
T1 sequence (O14965 1-403): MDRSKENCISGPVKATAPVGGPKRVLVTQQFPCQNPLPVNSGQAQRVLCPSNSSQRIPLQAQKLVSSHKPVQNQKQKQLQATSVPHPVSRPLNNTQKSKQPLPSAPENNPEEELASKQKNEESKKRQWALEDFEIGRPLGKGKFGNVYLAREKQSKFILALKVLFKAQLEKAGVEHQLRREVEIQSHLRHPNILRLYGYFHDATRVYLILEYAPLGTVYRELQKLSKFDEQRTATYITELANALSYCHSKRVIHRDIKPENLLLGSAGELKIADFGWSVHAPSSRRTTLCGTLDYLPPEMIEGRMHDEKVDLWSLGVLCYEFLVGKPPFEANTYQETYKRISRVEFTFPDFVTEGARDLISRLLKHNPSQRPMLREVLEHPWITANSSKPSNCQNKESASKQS
As to the kind of experiment: Aurora A inhibitory activity (IMAP fluorescence polarization). It counts as biochemical. Conditions: 20 μM ATP, 30° C., 120 minutes. An excerpt: cDNA of N-terminal His-tagged human Aurora A was integrated into an expression vector, which was then highly expressed in Escherichia coli BL21-CodonPlus(DE3)-RIL cells. The Escherichia coli was harvested and lysed, and then the His-tagged human Aurora A protein was applied onto a nickel chelate column and eluted from the column with imidazole. The active fractions were desalted with a desalting column to give a purified enzyme.
For measurement of the activity of Aurora A, the substrate used was a synthetic peptide (5-FAM (5-carboxyfluorescein)-γ-aminobutyric acid-Ala-Leu-Arg-Arg-Ala-Ser-Leu-Gly-NH2) (SEQ.ID.NO.: 1), which was purchased from Toray Research Center, Inc.
For the phosphorylation reaction, the method by Upstate, Inc. [Kinase Profiler™ Assay Protocols] was referred to, and phosphorylation of the substrate was detected using IMAP® technology (Molecular Devices, Co. Ltd.) (Gaudet E W. et. al, J. Biomol. Screen, 8, 164-175 (2003)). Concretely, the phosphorylation reaction and the detection were carried out as follows:
The phosphorylation reaction was conducted using 384 well plate, and the reaction volume was 10 μl/well. The reaction buffer is comprised of 50 mM Tris-chloride buffer (pH 7.4), 15 mM magnesium acetate, and 0.2 mM ethylenediamine-N,N,N′,N′-tetraacetic acid (EDTA). Thereto, the purified Aurora A protein, 100 nM of the peptide substrate, and 20 μM of adenosine 5′-triphosphate (ATP) were added, and then the reaction was carried out at 30° C. for 120 minutes.
Thereafter, in order to terminate and detect the reaction, 30 μl of the IMAP (registered trademark) binding reagent (IMAP Progressive Binding Reagent, R7284) that had been diluted (1:400) in the 1×IMAP binding buffer A (IMAP Progressive Binding Buffer A, 5× stock, R7282) was added to each well. The solution stood still for 60 minutes in the dark, and then fluorescence polarization was measured using a high-end microplate reader (excitation wavelength: 485 nm; emission wavelength: 520 nm).
The compound to be tested was added to the reaction system such that a dilution series of the compound in dimethylsulfoxide (DMSO) was prepared, and then 0.5 μL of this solution was added for the testing to each well. Each control well was provided by adding 0.5 μL of DMSO to the well in place of the DMSO solution containing the compound to be tested.

Assay [2] concerns Human cervical cancer cells (HeLa S3). As to the kind of experiment: Cell growth inhibitory effect, WST-8 method. The class given is cell-based. Conditions: 72 h, HeLa S3, three days incubation, read-out: Cell growth inhibitory effect (HeLaS3) (IC50). The protocol: Fetal calf serum (FCS) was purchased from Moregate Biotech, and DMEM medium was purchased from Invitrogen Corp. WST-8 was purchased from Kishida Chemical Co., Ltd.
(§1) Human cervical cancer cells (HeLa S3) were obtained from the American Type Culture Collection (ATCC).
Cells were suspended in a DMEM medium containing 10% FCS, and the cell suspension was dispensed to a 96-well plastic plate at a rate of 750 cells/100 microliters per well. The plate was incubated overnight in 5% CO2-95% air at 37° C. A drug was subjected to graded dilution in dimethylsulfoxide and further diluted with a DMEM medium containing 10% FCS. Then, the dilution was dispensed to the plate on which cells had been disseminated, at a rate of 100 microliters per well. The plate was incubated for further three days in 5% CO2-95% air at 37° C. Cell growth after incubation was measured by the WST-8 method (H. Tominaga, et al., Anal. Commun., 36, 47-50 (1999)). Here, the WST-8 method refers to a method in which 20 microliters of a WST-8 reagent solution is added to each well, incubation is conducted at 37° C. for 60 minutes, the plate is stirred, and the amount of formazan produced is measured by a colorimetric method to determine the inhibitory rate of the drug. The concentration for 50% growth inhibition (IC50, μM) of the compound was determined.
(In general: Tetrazolium dyes change colour on reduction, which living cells bring about.)

In assay [3] the target is T2, GST-tagged human Aurora B(AurB)/His-tagged human INCENP complex proteins (Homo sapiens, UniProt Q96GD4).
T2 construct: GST; purchased Carna Biosciences, Inc
Briefly: Aurora B inhibitory activity (Method A, IMAP kit). The class given is biochemical. The note with it: 40 μM ATP, 25° C., 45 minutes. The protocol: An assay development kit for IMAP (registered trademark) (Aurora B), purchased from Carna Biosciences, Inc., was used for phosphorylation reaction, and the phosphorylation of a substrate was detected using the IMAP technology. The assay development kit used is comprised of an assay buffer, GST-tagged human Aurora B(AurB)/His-tagged human INCENP complex proteins (amino acid sequence: 803-916, AAU04398.1), and an ATP/substrate solution. Using the same, the phosphorylation reaction was conducted in accordance with a partially revised protocol attached to the kit, and then the phosphorylation of the substrate was detected using the IMAP technology.
For the phosphorylation reaction, 384 well plate was used, and the reaction volume was 10 μl/well. The composition of the reaction buffer (assay buffer) is comprised of 20 mM of HEPES buffer (pH 7.4), 0.01% Tween-20, and 2 mM of dithiothreitol (DTT). Thereto, AurB/INCENP complex protein, 100 nM of the substrate, and 40 μM of ATP, and 1 mM of magnesium salt were added, and then the reaction was conducted at 25° C. for 45 minutes. Thereafter, in order to terminate and detect the reaction, 30 μl of the IMAP (registered trademark) binding reagent (IMAP Progressive Binding Reagent, R7284) that had been diluted (1:400) in the 1×IMAP binding buffer A (IMAP Progressive Binding Buffer A, 5× stock, R7282) was added to each well. The solution stood still for 60 minutes in the dark, and then fluorescence polarization was measured using a high-end microplate reader (excitation wavelength: 485 nm; emission wavelength: 520 nm).
The compound to be tested was added to the reaction system such that a dilution series of the compound in DMSO was prepared, and then 0.5 μL of this solution was added for the testing to each well. Each control well was provided by adding 0.5 μL of DMSO to the well in place of the DMSO solution containing the compound to be tested.

The test system of assay [4] is Human cervical cancer cells (HeLa S3). As to the kind of experiment: Effect by combined use of drugs in cells (with docetaxel), WST-8 method. It counts as cell-based. The note with it: HeLa S3, three days; for inhibition at 0.03 µM: compound 30 nM alone. As to the method: Fetal calf serum (FCS) was purchased from Moregate Biotech, DMEM medium from Invitrogen Corp., docetaxel (tradename: Taxere) from Sigma-Aldrich, Inc., and WST-8 from Kishida Chemical Co., Ltd.
as §1
Cells were suspended in a DMEM medium containing 10% FCS, and the cell suspension was dispensed to two 96-well plastic plates at a rate of 750 cells/100 microliters per well. The plates were incubated overnight in 5% CO2-95% air at 37° C. A drug was subjected to graded dilution in dimethylsulfoxide and further diluted with DMSO or with a DMEM medium containing 10% FCS and also containing 0.6 nM docetaxel. Then, the dilutions were each dispensed to one of the plates on which cells had been disseminated, at a rate of 100 microliters per well. The final concentration of docetaxel at this stage was 0.3 nM. Also, the concentrations in the case of sole administration of the compound according to the invention were 0.003, 0.01, 0.03, 0.1, 0.3, 1, 3 and 10 μM. The plates were incubated for further three days in 5% CO2-95% air at 37° C. Cell growth after incubation was measured by the WST-8 method (H. Tominaga, et al., Anal. Commun., 36, 47-50 (1999)). Here, the WST-8 method refers to a method in which 20 microliters of a WST-8 reagent solution is added to each well, incubation is conducted at 37° C. for 60 minutes, the plate is stirred, and the amount of formazan produced is measured by a colorimetric method to determine the inhibitory rate of the drug. The growth inhibitory effects of docetaxel and of the compound according to the invention were determined, with the value obtained in sole treatment of DMSO being defined as 0%.

[5] abbreviates: Homo sapiens, HeLa S3, 72 h, read-out: Cell growth inhibitory effect by sole administration of the compound of Example (%).
[6] abbreviates: compound 30 nM + docetaxel 0.3 nM.

T2 sequence (Q96GD4 whole entry): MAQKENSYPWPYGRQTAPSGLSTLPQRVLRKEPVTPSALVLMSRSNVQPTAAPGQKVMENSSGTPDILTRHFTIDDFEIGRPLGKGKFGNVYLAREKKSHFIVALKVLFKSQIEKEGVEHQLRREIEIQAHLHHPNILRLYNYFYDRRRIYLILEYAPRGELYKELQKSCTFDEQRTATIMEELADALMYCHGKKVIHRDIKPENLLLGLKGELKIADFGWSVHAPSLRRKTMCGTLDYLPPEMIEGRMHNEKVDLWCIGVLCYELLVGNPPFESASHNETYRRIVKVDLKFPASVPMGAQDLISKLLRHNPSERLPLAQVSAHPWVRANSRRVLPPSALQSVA
T2 sequence (Q9NQS7 803-916 partner limits assumed): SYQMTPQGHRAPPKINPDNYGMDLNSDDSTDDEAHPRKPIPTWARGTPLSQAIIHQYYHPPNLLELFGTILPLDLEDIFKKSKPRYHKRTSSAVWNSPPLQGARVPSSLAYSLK

One may read the IC50 as the midpoint of a concentration-inhibition curve. With `O=C(c1cccc(C(F)(F)F)c1F)N1CCC(Cc2cccc(Nc3cc[nH]n3)n2)(c2n[nH]c(=O)o2)CC1` [Example 9, 5-(1-(2-fluoro-3-(trifluoromethyl)benzoyl)-4-((6-(1H-pyrazol-3-ylamino)pyridin-2-yl)methyl)piperidin-4-yl)-1,3,4-oxadiazol-2(3H)-one], the IC50 in assay [1] was determined as 0.25 nM; in assay [2], 220 nM; in assay [3], 35.8 nM. Moreover, in assay [4] (setting [5]), the inhibition at 0.03 µM came to 20.3%. The “Cell growth inhibitory effect by combined administration of docetaxel and the compound of Example (%)” value (“Cell growth inhibitory effect … (%)” for short) in assay [4] (setting [6]) was 90.9%.

Regarding `O=C(c1cccc(Cl)c1F)N1CCC(Cc2cccc(Nc3cc[nH]n3)n2)(c2n[nH]c(=O)o2)CC1` [Example 10, 5-(1-(3-chloro-2-fluorobenzoyl)-4-((6-(1H-pyrazol-3-ylamino)pyridin-2-yl)methyl)piperidin-4-yl)-1,3,4-oxadiazol-2(3H)-one trifluoroacetate], the IC50 in assay [1] stood at 0.27 nM; in assay [2] it was 280 nM; in assay [3], 166 nM. Further, the inhibition at 0.03 µM in assay [4] (setting [5]) was 3.3%. The “Cell growth inhibitory effect … (%)” value in assay [4] (setting [6]) came out at 84.8%.

As to `O=C(c1cccc(Cl)c1F)N1CCC(Cc2cc(-c3ccccc3)cc(Nc3cc[nH]n3)n2)(c2n[nH]c(=O)o2)CC1` [Example 17, 5-(1-(3-chloro-2-fluorobenzoyl)-4-((4-phenyl-6-(1H-pyrazol-3-ylamino)pyridin-2-yl)methyl)piperidin-4-yl)-1,3,4-oxadiazol-2(3H)-one], the IC50 in assay [1] stood at 0.3 nM; in assay [2] it was 100 nM; in assay [3], 381 nM. For the same compound, in assay [4] (Homo sapiens, HeLa S3, 72 h, compound 10 nM alone, read-out: Cell growth inhibitory effect by sole administration of the compound of Example (%)), the inhibition at 0.01 µM stood at 4.2%. For the same compound, the “Cell growth inhibitory effect … (%)” value in assay [4] (compound 10 nM + docetaxel 0.3 nM) is 80.8%.
